According to patent US10857201B2, “NNIF and nNIF-related peptides and related methods” (UNIVERSITY OF UTAH RESEARCH FOUNDATION, priority 2016, dated 2020):
Entries after “also recorded” stand apart in the source; their conditions may differ.

What was measured:
[1] = tested on: reactive oxygen species generation by PMNs; experiment: Reactive oxygen species generation (dihydrorhodamine, flow cytometry); assay type: cell-based, human; details: LPS 100 ng/mL, 1 hour
Procedure: FIG. 6B is a graph depicting reactive oxygen species generation that was measured by dihydrorhodamine detection after LPS stimulation (100 ng/mL, 1 hour).
Human PMNs isolated from healthy adult whole blood were resuspended to a concentration of 2×10^6 cells/mL in M-199 media and pre-incubated±CRISPP (1 nM) or CRISPP-SCR (1 nM) peptide for 1 hour at 37° C. in 5% CO2/95% air. The PMNs were then stimulated with LPS (100 ng/mL) for 1 hour, washed, and resuspended with a dihydrorhodamine ([…]; MOLECULAR PROBES®) and catalase (1000 Units/mL; SIGMA-ALDRICH®) mixture and incubated at 37° C. for 10 minutes. After incubation, samples were placed at 4° C. and analyzed for ROS-dependent fluorescence using flow cytometry as performed in the University of Utah core facility (BECTON DICKINSON™, […]™ software).
Without being bound by any specific theory, it was hypothesized that placentally expressed HTRA1, a serine protease, regulates the formation of NET-inhibitory peptides through cleavage of AAT. To test this hypothesis, term and preterm placenta were assessed for HTRA1 expression via western blotting. HTRA1 and AAT plasma expression from term and preterm infants and adults were determined by ELISA. Bioactive (0.5 μg) or placental eluted HTRA1 was incubated with AAT (8 μM) for 18 hours at 37° C. Carboxy-terminus fragments of AAT were detected using western blotting and mass spectrometry. […]

[2] = tested on: C57BL/6 mice subjected to CLP; experiment: Mouse model of polymicrobial sepsis, cecal ligation and puncture (CLP); details: 10 mg/kg i.p. 1 hour before and 6 hours after, versus nNIF-SCR
Procedure: FIG. 9B is a graph depicting C57BL/6 mice that were subjected to cecal ligation and puncture (CLP). nNIF or nNIF-SCR (10 mg/kg i.p.) was given 1 hour before and 6 hours after surgery (n≥7 in each group). Mice subjected to sham surgery were studied in parallel (n=3 in each group). Clinical illness severity scores (see Araujo C V, et al., Shock. 2016; 45 (4):393-403) were determined at 24 hours.
C57BL/6 mice were anaesthetized with ketamine/xylazine (100 mg/kg and 10 mg/kg, i.p; respectively), and cecal ligation and puncture (CLP) was performed as previously described (see Araujo C V, et al., Shock. 2016; 45 (4):393-403). nNIF (10 mg/kg) or nNIF-SCR (10 mg/kg) i.p. was given 1 hour prior to and 6 hours after CLP surgery. The animals received subcutaneous sterile isotonic saline (1 mL) for fluid resuscitation immediately after the surgery. Sham-operated mice were subjected to identical procedures except that CLP was not done. 24 hours after CLP, all animals were scored for clinical illness severity as previously described (see Araujo C V, et al., Shock. 2016; 45 (4):393-403). In this assessment, higher scores reflect increased illness severity.

[3] = tested on: platelets; experiment: P-selectin surface translocation on thrombin-activated platelets (flow cytometry); assay type: cell-based, human; details: thrombin 0.1 U/mL; peptide 1 nM
Procedure: FIG. 6E is a graph depicting surface translocation of P-selectin on platelets activated by thrombin (0.1 U/mL) that was measured by flow cytometry. The dashed line indicates surface P-selectin on unstimulated platelets.
(§1) P-selectin translocation and surface display by activated platelets (see van Velzen J F, et al., Thromb Res. 2012; 130 (1):92-8) and formation of platelet-neutrophil aggregates (see Evangelista V, et al., Blood. 1996; 88 (11):4183-94) were measured as described.

[4] = tested on: PMN killing of a pathogenic strain of Escherichia coli; experiment: Bacterial killing assay (total, phagocytic, NET-mediated); assay type: cell-based, human; details: LPS-stimulated PMNs, E. coli
Procedure: FIG. 6A is a graph depicting results, after preincubation, of neutrophils that were stimulated with LPS (100 ng/mL) to trigger NET formation and incubated with a pathogenic isolate of E. coli. Total, phagocytic, and NET-mediated bacterial killing were measured (see Yost C C, et al., Blood. 2009; 113 (25):6419-27). One way ANOVA with Bonferonni's post hoc testing; *P<0.05, **P<0.01.
NET-mediated and phagocytic bacterial killing by primary human PMNs was determined as previously described (see Yost C C, et al., Blood. 2009; 113 (25):6419-27).
Without being bound by any specific theory, it was hypothesized that placentally expressed HTRA1, a serine protease, regulates the formation of NET-inhibitory peptides through cleavage of AAT. To test this hypothesis, term and preterm placenta were assessed for HTRA1 expression via western blotting. HTRA1 and AAT plasma expression from term and preterm infants and adults were determined by ELISA. Bioactive (0.5 μg) or placental eluted HTRA1 was incubated with AAT (8 μM) for 18 hours at 37° C. Carboxy-terminus fragments of AAT were detected using western blotting and mass spectrometry. The reaction products were incubated for 1 hour with PMNs isolated from healthy adults prior to LPS stimulation (100 ng/mL) and assessed for NET formation using live cell imaging. Reactive oxygen species were assessed using flow cytometry, chemotaxis using a modified Boyden chamber assay, and bacterial killing using E. coli.

[5] = tested on: activated human platelets and PMNs; experiment: Platelet-neutrophil aggregate formation; assay type: cell-based; details: thrombin 0.1 U/mL, LPS 100 ng/mL; peptide 1 nM
Procedure: FIG. 6F is a graph depicting formation of platelet-neutrophil aggregates that was measured after mixing of platelets activated with thrombin (0.1 U/mL) and neutrophils activated with LPS (100 ng/mL). The dashed line indicates control aggregate formation in response to LPS stimulation of the PMNs alone. *P<0.05 for CRISPP and CRISPP-SCR compared to control. FIGS. 6A-6F are a series of graphs depicting isolated adult neutrophils or platelets that were preincubated with buffer or with CRISPP, nNIF, or CRISPP-SCR (1 nM, 1 hour for each) followed by measurement of functional responses. A minimum of three separate assays were done for each response. Error bars=SEM. Tukey's post hoc testing was applied in FIGS. 6B, 6D, 6E, and 6F.
as §1

KFNKPFVFLMIEQNTKSPLFMGKVVNPTQ (listed as Homo sapiens) [nNIF]
generation of reactive oxygen species (ROS) [1]: did not inhibit
clinical illness scores at 24 hours [2]: lower

M_IPPEVKFNKPFVFLMIDQNTKVPLFMGK [CRISPP, consensus peptide based on factors present in the blood of patients with cancer]
generation of reactive oxygen species (ROS) [1]: did not inhibit; also recorded: not inhibited
surface translocation of P-selectin by thrombin-stimulated platelets [3]: does not inhibit
extracellular NET-mediated bacterial killing [4]: depressed
phagocytic intracellular killing [4]: not altered
total bacterial killing [4]: depressed
formation of heterotypic aggregates by activated platelets and PMNs [5]: does not inhibit
